From ChEMBL document CHEMBL5360590, “Phyllospongianes A-E, Dinorscalarane Sesterterpenes from the Marine Sponge Phyllospongia foliascens” (J Nat Prod, 2023)
Values after ≈ are worked out from the molar mass of the structure shown.

Columns and labels:
[1] = tested on: Enterococcus faecalis; assay: Antibacterial activity against Enterococcus faecalis assessed as bacterial growth inhibition; type: functional
[2] = tested on: NCI-H460; assay: Cytotoxicity against human NCI-H460 cells assessed as reduction in cell viability by CCK-8 assay; type: functional, cell-based
[3] = tested on: Vibrio parahaemolyticus; assay: Antibacterial activity against Vibrio parahaemolyticus assessed as bacterial growth inhibition; type: functional
[4] = tested on: Pseudomonas aeruginosa; assay: Antibacterial activity against Pseudomonas aeruginosa assessed as bacterial growth inhibition; type: functional
[5] = tested on: HepG2; assay: Cytotoxicity against human HepG2 cells assessed as reduction in cell viability by CCK-8 assay; type: functional, cell-based
[6] = tested on: MDA-MB-231; assay: Cytotoxicity against human MDA-MB-231 cells assessed as reduction in cell viability by CCK-8 assay; type: functional, cell-based
[7] = tested on: HT-29; assay: Cytotoxicity against human HT-29 cells assessed as reduction in cell viability by CCK-8 assay; type: functional, cell-based
[8] = tested on: Vibrio vulnificus; assay: Antibacterial activity against Vibrio vulnificus assessed as bacterial growth inhibition; type: functional
[9] = Cytotoxicity against human Enzalutamide-resistant LNCaP C4-2 cells assessed as reduction in cell viability by CCK-8 assay; type: functional, cell-based
[10] = tested on: Escherichia coli; assay: Antibacterial activity against Escherichia coli assessed as bacterial growth inhibition; type: functional
[11] = tested on: Bacillus subtilis; assay: Antibacterial activity against Bacillus subtilis assessed as bacterial growth inhibition; type: functional
[12] = tested on: MCF7; assay: Cytotoxicity against human MCF7 cells assessed as reduction in cell viability by CCK-8 assay; type: functional, cell-based

| SMILES | MIC [1] [µg/mL] | MIC [4] [µg/mL] | MIC [8] [µg/mL] | MIC [10] [µg/mL] | MIC [11] [µg/mL] | IC50 [2] [µM] | MIC [3] [µg/mL] | IC50 [5] [µM] | IC50 [6] [µM] | IC50 [7] [µM] | IC50 [9] [µM] | IC50 [12] [µM] |
| --- | --- | --- | --- | --- | --- | --- | --- | --- | --- | --- | --- | --- |
| CC[C@@]1(C)CCC[C@]2(C)[C@H]3C[C@H](OC(=O)C[C@H](O)C(C)C)[C@]4(C)C(C=O)=CC[C@H]4[C@]3(C)CC[C@@H]12 | > 64 | > 64 | > 64 | > 64 | 8 (≈ 16.9 µM) | 2 | > 64 | 9.6 | 13.2 | 1.2 | 0.7 | 1.1 |
| Cn1nnc2c(C(N)=O)ncn2c1=O [TEMOZOLOMIDE] | – | – | – | – | – | – | – | 5.9 | 14.4 | – | 18.2 | – |
| C[C@H]1COc2c(N3CCN(C)CC3)c(F)cc3c(=O)c(C(=O)O)cn1c23 [LEVOFLOXACIN ANHYDROUS] | 0.25 (≈ 0.692 µM) | 0.25 (≈ 0.692 µM) | 0.5 (≈ 1.38 µM) | 0.25 (≈ 0.692 µM) | 0.25 (≈ 0.692 µM) | – | 0.5 (≈ 1.38 µM) | – | – | – | – | – |

Further compounds by falling MIC [1], results first:

| MIC [1] [µg/mL] | MIC [4] [µg/mL] | MIC [8] [µg/mL] | MIC [10] [µg/mL] | MIC [11] [µg/mL] | SMILES | IC50 [2] [µM] | MIC [3] [µg/mL] | IC50 [5] [µM] | IC50 [6] [µM] | IC50 [7] [µM] | IC50 [9] [µM] | IC50 [12] [µM] |
| --- | --- | --- | --- | --- | --- | --- | --- | --- | --- | --- | --- | --- |
| 16 (≈ 34.9 µM) | 32 (≈ 69.8 µM) | 64 (≈ 140 µM) | 32 (≈ 69.8 µM) | 16 (≈ 34.9 µM) | CCCCC(=O)O[C@H]1C[C@@H]2[C@@]3(C)CCC[C@](C)(CC)[C@@H]3CC[C@@]2(C)[C@@H]2CC=C(C(=O)O)[C@@]12C | 13 | 16 (≈ 34.9 µM) | > 50 | > 50 | 18 | 11.2 | 15.3 |
| 4 (≈ 8.46 µM) | 4 (≈ 8.46 µM) | 4 (≈ 8.46 µM) | 8 (≈ 16.9 µM) | 2 (≈ 4.23 µM) | CC[C@@]1(C)CCC[C@]2(C)[C@H]3C[C@H](OC(=O)CCC(C)C)[C@]4(C)C(C(=O)O)=CC[C@H]4[C@]3(C)CC[C@@H]12 | 11 | 2 (≈ 4.23 µM) | 20.1 | > 50 | 13.2 | 3.7 | 12.3 |
| 4 (≈ 9.04 µM) | 4 (≈ 9.04 µM) | 4 (≈ 9.04 µM) | 8 (≈ 18.1 µM) | 2 (≈ 4.52 µM) | CCCCC(=O)O[C@H]1C[C@@H]2[C@@]3(C)CCC[C@](C)(CC)[C@@H]3CC[C@@]2(C)[C@@H]2CC=C(C=O)[C@@]12C | 10.2 | 4 (≈ 9.04 µM) | 32.1 | > 50 | 8.7 | 5.7 | 7.3 |
| 4 (≈ 8.76 µM) | 4 (≈ 8.76 µM) | 2 (≈ 4.38 µM) | 8 (≈ 17.5 µM) | 1 (≈ 2.19 µM) | CC[C@@]1(C)CCC[C@]2(C)[C@H]3C[C@H](OC(=O)CCC(C)C)[C@]4(C)C(C=O)=CC[C@H]4[C@]3(C)CC[C@@H]12 | 7.2 | 2 (≈ 4.38 µM) | 19.3 | 32.3 | 4.7 | 1.7 | 3.5 |
